# Structures can show the parent of a compound that is named as a salt.
# Assay: in vitro
# Details: rat, gh3-tre-luc cells, AC50 (uM) modified / 1000
row,SMILES,CC50 at 24 h [µM]
1,"ClC(Cl)=C(Cl)C(Cl)=C(Cl)Cl [Hexachloro-1,3-butadiene]",> 90
2,O=C(O)CN1C(=O)c2cccc3cccc(c23)C1=O [Alrestatin],> 50
3,"Oc1ccccc1Cc1ccccc1O [2,2'-Bisphenol F]",> 90
4,CCCCCCCCOC(=O)c1cc(O)c(O)c(O)c1 [Octyl gallate],2.6
5,"CCC(CO)(CO)CO [2-Ethyl-2-(hydroxymethyl)-1,3-propanediol]",> 100
6,CCOCCOCCOC(C)=O [2-(2-Ethoxyethoxy)ethyl acetate],> 90
7,O=C(/C=C/c1cccc(F)c1)NC1CC1 [Cinflumide],> 50
8,CN(C)CCN(C)CCO [2-{[2-(Dimethylamino)ethyl](methyl)amino}ethanol],> 90
9,CCCCCCCCCCCCN1CCCC1=O [1-Dodecyl-2-pyrrolidinone],49.6
10,"CCC(=O)C=CC1C(C)=CCCC1(C)C (centres unmarked) [1-(2,6,6-Trimethyl-2-cyclohexen-1-yl)-1-penten-3-one]",> 90
11,CN1CCN(CCCN2c3ccccc3Sc3ccc(C(F)(F)F)cc32)CC1 [Fluoperazine dihydrochloride],7.86
12,CCC(=O)Nc1ccc(Cl)c(Cl)c1 [Propanil],> 90
13,CCCCC[C@H](O)/C=C/[C@H]1[C@H](O)CC(=O)[C@@H]1C/C=C\CCCC(=O)O [Dinoprostone],> 50
14,Cc1cc([N+](=O)[O-])ccc1N [2-Methyl-4-nitroaniline],> 90
15,"ClCC=CCCl [1,4-Dichloro-2-butene]",> 90
16,CNS(=O)(=O)Cc1ccc2[nH]cc(CCN(C)C)c2c1 [Sumatriptan],> 50
17,CC(C)c1ccc2sc3ccccc3c(=O)c2c1 [2-(Propan-2-yl)-9H-thioxanthen-9-one],> 90
18,"O=CNNC=O [1,2-Diformylhydrazine]",> 90
19,CN1CC(=O)N=C1NC(=O)Nc1cccc(Cl)c1 [Fenobam],> 50
20,COC(C)(C)C [Methyl tert-butyl ether],> 90
21,"c1ccc2cc(Nc3ccc(Nc4ccc5ccccc5c4)cc3)ccc2c1 [N,N'-Di-2-naphthyl-p-phenylenediamine]",> 90
22,"COCCOCCOCCOCCOC [2,5,8,11,14-Pentaoxapentadecane]",> 90
23,CC(C)c1ccc(S(=O)(=O)O)cc1 [4-Isopropylbenzenesulfonic acid],> 90

row,SMILES,CC50 at 24 h [µM]
1,CCCCOCCOC(=O)c1ccccc1C(=O)OCCOCCCC [Bis(2-butoxyethyl) phthalate],> 90
2,N[C@@H]1[C@H]2CN(c3nc4c(cc3F)c(=O)c(C(=O)O)cn4-c3ccc(F)cc3F)C[C@@H]12 [Trovafloxacin mesylate],20.9
3,Cc1cccc(C)c1OCC(=O)N[C@@H](Cc1ccccc1)[C@@H](O)C[C@H](Cc1ccccc1)NC(=O)[C@H](C(C)C)N1CCCNC1=O [Lopinavir],24.6
4,Cc1c(N)c(=O)n(-c2ccccc2)n1C [Ampyrone],> 20
5,Cc1cc2c(C(C)C)c(O)c(O)c(C=O)c2c(O)c1-c1c(C)cc2c(C(C)C)c(O)c(O)c(C=O)c2c1O [Gossypol],8.84
6,c1ccc(COCc2ccccc2)cc1 [Dibenzyl ether],> 100
7,"Cc1ccc([N+](=O)[O-])c(C)c1 [1,3-Dimethyl-4-nitrobenzene]",> 90
8,CO/N=C(\C(=O)N[C@@H]1C(=O)N2C(C(=O)O)=C(Cn3ccc(=N)n3CCO)CS[C@H]12)c1csc(N)n1 [Cefoselis sulfate],> 50
9,CCCC(=O)c1ccccc1 [Butyrophenone],> 90
10,"CC(C)N(c1ccccc1)C(C)C [N,N-Diisopropylaniline]",> 90
11,CC(C)Nc1nc(N)nc(Cl)n1 [Deethylatrazine],> 90
12,CN(C/C=C/C#CC(C)(C)C)Cc1cccc2ccccc12 [Terbinafine],38.3
13,NC(=O)C(c1ccccc1)(c1ccccc1)[C@@H]1CCN(CCc2ccc3c(c2)CCO3)C1 [Darifenacin hydrobromide],14.7
14,O=C(c1cc2ccccc2o1)N1CCN(Cc2ccccc2)CC1 [Befuraline],> 50
15,"O=C(c1ccc(O)c(O)c1)c1ccc(O)cc1O [2,3',4,4'-Tetrahydroxybenzophenone]",49.5
16,NC(=O)c1ccc(N)cc1 [4-Aminobenzamide],> 90
17,COc1ccc(NC(C)=O)cc1N [N-(3-Amino-4-methoxyphenyl)acetamide],> 90
18,Nc1c(Br)cc(Br)cc1CN[C@H]1CC[C@H](O)CC1 [Ambroxolhydrochloride],> 50
19,SC1CCCCC1 [Cyclohexanethiol],> 100
20,"O=C=Nc1ccc(Cl)c(Cl)c1 [3,4-Dichlorophenyl isocyanate]",> 90
21,COc1ccc(S(=O)(=O)Nc2nnc(CC(C)C)s2)cc1 [Glysobuzole],> 50
22,CCCN(CCc1cccs1)[C@H]1CCc2c(O)cccc2C1 [Rotigotine],40.9
23,C=CC(C)(CCC=C(C)C)OC(=O)C(C)C (centres unmarked) [Linalyl isobutyrate],> 90

row,SMILES,CC50 at 24 h [µM]
1,O=c1c(O)c(-c2ccc(O)cc2O)oc2cc(O)cc(O)c12 [Morin hydrate],> 90
2,OCCCC1CCCCC1 [3-Cyclohexylpropan-1-ol],> 90
3,"CCOC(=O)CC1(C)OCC(C)O1 (centres unmarked) [Ethyl 2,4-dimethyl-1,3-dioxolane-2-acetate]",> 90
4,CN(C)CCOC(=O)C(c1ccccc1)C1(O)CCCC1 (centres unmarked) [Cyclopentolate hydrochloride],> 50
5,Cc1onc(-c2c(F)cccc2Cl)c1C(=O)N[C@@H]1C(=O)N2[C@@H]1SC(C)(C)[C@@H]2C(=O)O [Floxacillin sodium salt],> 50
6,CNCc1cc(F)ccc1Oc1ccc(Cl)c(Cl)c1 [CP-607366],77.7
7,"COC(C)(C)OC [2,2-Dimethoxypropane]",> 90
8,Cc1ccc(S(=O)(=O)O)cc1 [4-Methylbenzenesulfonic acid],> 90
9,C=C[C@](C)(O)CC[C@@H]1[C@@]2(C)CCCC(C)(C)[C@@H]2CC[C@@]1(C)O [Sclareol],29.3
10,Cc1cc(C(F)(C(F)(F)F)C(F)(F)F)ccc1NC(=O)c1cccc(I)c1C(=O)NC(C)(C)CS(C)(=O)=O [Flubendiamide],> 70
11,COC(=O)NCCC[Si](OC)(OC)OC [Methyl [3-(trimethoxysilyl)propyl]carbamate],> 90
12,NC(=O)CC[C@@H]1NC(=O)[C@H](Cc2ccccc2)NC(=O)[C@H](Cc2ccc(O)cc2)NC(=O)[C@@H](N)CSSC[C@@H](C(=O)N2CCC[C@H]2C(=O)N[C@@H](CCCN=C(N)N)C(=O)NCC(N)=O)NC(=O)[C@H](CC(N)=O)NC1=O [Argipressin acetate],> 50
13,Cc1c(-c2ccccc2)oc2c(C(=O)OCCN3CCCCC3)cccc2c1=O [Flavoxate hydrochloride],> 20
14,CC1(C)S[C@@H]2[C@H](NC(=O)C3(N)CCCCC3)C(=O)N2[C@H]1C(=O)O [Cyclacillin],> 50
15,CCCCOCCOCCOC(C)=O [2-(2-Butoxyethoxy)ethyl acetate],> 90
16,O=C(NCC(O)CO)c1c(I)c(C(=O)NCC(O)CO)c(I)c(N(CCO)C(=O)CO)c1I (centres unmarked) [Ioversol],> 20
17,CCC(Cc1ccccc1)(C(=O)c1ccc(N2CCOCC2)cc1)N(C)C (centres unmarked) [2-Benzyl-2-(dimethylamino)-1-[4-(morpholin-4-yl)phenyl]butan-1-one],68.2
18,CCCCOC(=O)c1ccccc1 [Butyl benzoate],> 90
19,CN1CCC(=C2c3ccccc3CCc3cccnc32)CC1 [Azatadine],47.7
20,CN1CCN(CCCN2c3ccccc3Sc3ccccc32)CC1 [Perazine],16.5
21,CN(CCCCCCCCCCN(C)C(=O)Oc1cccc([N+](C)(C)C)c1)C(=O)Oc1cccc([N+](C)(C)C)c1 [Demecarium bromide],> 20

# Same assay, conditions: rat, gh3-tre-luc cells, AC50 (uM) modified / 1000, Tox21_110001=Tox21_110766; viability, 1 nM T3 present, 24 h
row,SMILES,CC50 at 24 h [µM]
1,COc1ccc2c(c1)[C@]13CCCC[C@@H]1[C@H](C2)N(C)CC3 [Dextromethorphan hydrobromide monohydrate],> 50

# Same assay, conditions: rat, gh3-tre-luc cells, AC50 (uM) modified / 1000, Tox21_110001=Tox21_111120; viability, 1 nM T3 present, 24 h
row,SMILES,CC50 at 24 h [µM]
1,ClC1=C(Cl)[C@]2(Cl)[C@@H]3[C@H]4C[C@H]([C@@H]5O[C@H]45)[C@@H]3[C@@]1(Cl)C2(Cl)Cl [Endrin],34.4

# Same assay, conditions: rat, gh3-tre-luc cells, AC50 (uM) modified / 1000, Tox21_110001=Tox21_200294; viability, 1 nM T3 present, 24 h
row,SMILES,CC50 at 24 h [µM]
1,CCCC(=O)Cl [Butyryl chloride],> 90

# Same assay, conditions: rat, gh3-tre-luc cells, AC50 (uM) modified / 1000, Tox21_110001=Tox21_202725; viability, 1 nM T3 present, 24 h
row,SMILES,CC50 at 24 h [µM]
1,CN1[C@@H]2CC[C@H]1CC(O)C2 (some centres unmarked) [Tropine],> 100

# Same assay, conditions: rat, gh3-tre-luc cells, AC50 (uM) modified / 1000, Tox21_110001=Tox21_202829; viability, 1 nM T3 present, 24 h
row,SMILES,CC50 at 24 h [µM]
1,CC[C@H](N)c1ccccc1 [(S)-(-)-1-Amino-1-phenylpropane],> 90

# Same assay, conditions: rat, gh3-tre-luc cells, AC50 (uM) modified / 1000, Tox21_110001=Tox21_300544; viability, 1 nM T3 present, 24 h
row,SMILES,CC50 at 24 h [µM]
1,O=S(=O)(O)C(F)(F)C(F)(F)C(F)(F)C(F)(F)C(F)(F)C(F)(F)C(F)(F)C(F)(F)F [Potassium perfluorooctanesulfonate],49.4

# Same assay, conditions: rat, gh3-tre-luc cells, AC50 (uM) modified / 1000, Tox21_110001=Tox21_300613; viability, 1 nM T3 present, 24 h
row,SMILES,CC50 at 24 h [µM]
1,ClC1=C(Cl)[C@]2(Cl)[C@@H]3[C@H]4C[C@H]([C@@H]5O[C@H]45)[C@@H]3[C@@]1(Cl)C2(Cl)Cl [Endrin],> 90

# Same assay, conditions: rat, gh3-tre-luc cells, AC50 (uM) modified / 1000, Tox21_110001=Tox21_300651; viability, 1 nM T3 present, 24 h
row,SMILES,CC50 at 24 h [µM]
1,O=C(Nc1ccccc1)Nc1cnns1 [Thidiazuron],> 90

# Same assay, conditions: rat, gh3-tre-luc cells, AC50 (uM) modified / 1000, Tox21_110001=Tox21_301412; viability, 1 nM T3 present, 24 h
row,SMILES,CC50 at 24 h [µM]
1,Cc1cc(Cl)ccc1N=CN(C)C [Chlordimeform hydrochloride],> 90

# Same assay, conditions: rat, gh3-tre-luc cells, AC50 (uM) modified / 1000, Tox21_110001=Tox21_303381; viability, 1 nM T3 present, 24 h
row,SMILES,CC50 at 24 h [µM]
1,CCC(=O)c1ccc(Cl)cc1 [Ethyl 4-chlorophenyl ketone],> 90
